Data: publication PMC8745710, “Biological Evaluation and Molecular Docking Studies of Novel 1,3,4-Oxadiazole Derivatives of 4,6-Dimethyl-2-sulfanylpyridine-3-carboxamide” (International Journal of Molecular Sciences, 2022)
Like-named read-outs stand apart in the source and are kept apart here.

Legend:
[1] = system: LoVo (colon adenocarcinoma); test: MTT assay, LoVo; format: cell-based; conditions: Homo sapiens, 48 h incubation, read-out: IC50 [µM] ± SD LoVo
Source text: (§1) The MTT (3-[4,5-dimethylthiazol-2-yl]-2,5-diphenyl tetrazolium bromide) assay was used to determine the cytotoxicity of tested compounds towards different cell lines: normal human dermal fibroblasts (NHDF), kidney epithelial cells (VERO), fibroblasts from Chinese hamster lung (V79) and four human cancer cells: A549 (pulmonary basal cell alveolar adenocarcinoma), MCF-7 (breast adenocarcinoma), LoVo (colon adenocarcinoma), and its drug resistant subline LoVo/Dx. The cell lines used in this study express COX-1 and COX-2. The LoVo line expressed COX-1, the LoVo/Dx subline express both COX-1 and COX-2 [61].
(§2) Each cell line was grown in the culture media recommended by supplier. Before the test they were detached with trypsin/EDTA solution, then to neutralize the effect of Trypsin/EDTA solution, FBS containing medium was used. After centrifugation the cells were stained with 0.4% solution of trypan blue, counted and inspected for viability using microscope. In the end, cells were inserted into 96-well culture plates and incubated in CO2 incubator (37 °C, 24 h). The number of cells was 2 × 10^3 cells per well. The tested compounds with different concentrations (5, 10, 20, 50, 100 µM) were dissolved in DMSO and then added to the cells (the final DMSO concentration was 0.1%). The cultures were incubated for another 48 h. After that time the cells were collected to be used in tests.
(§3) MTT assay was used to find out how tested compounds influence the metabolic activity of investigated cell lines. The cells were incubated with tested compounds. After removing of supernatant, 1 mg/mL of MTT solution in MEM was added to the plate (to each well) and then the plates were incubated at 37 °C for 2 h. The medium was removed again, and formazan crystals were dissolved in isopropanol. A Varioscan LUX microplate reader (Thermo Fisher Scientific, Waltham, MA, USA) was used to measure absorbance at 570 nm.

[2] = system: NHDF (normal human dermal fibroblasts); test: MTT assay, NHDF; format: cell-based; conditions: 48 h incubation, read-out: IC50 [µM] ± SD NHDF
Source text: as §1, §2, §3

[3] = system: LoVo/Dx (drug resistant subline of LoVo); test: MTT assay, LoVo/Dx; format: cell-based; conditions: Homo sapiens, 48 h incubation, read-out: IC50 [µM] ± SD LoVo/Dx
Source text: as §1
as §2, with “In the end, cells were inserted into 96-well culture plates and incubated in CO2 incubator (37 °C, 24 h).” left out
MTT assay was used to find out how tested compounds influence the metabolic activity of investigated cell lines. The cells were incubated with tested compounds. […] The medium was removed again, and formazan crystals were dissolved in isopropanol.

V79 cell line = test: Intracellular ROS level (DCFH-DA), V79 cells; format: cell-based, Chinese hamster; conditions: Cricetulus griseus, 4 h, V79, compound 100 μM
Description: (§4) Two cell lines were chosen for investigations: V79 (Chinese hamster lung fibroblasts) and LoVo. V79 normal cells are widely used as the cell line tested in the studies of the oxidative stress. These cells are a living system model to explain the mechanism of ROS effects caused by varied compounds [73].
(§5) First, the tested compounds (in concentration of 100 μM) were added to the cell cultures and cells were incubated for 4 h. Then cells were washed and incubated with DCFH-DA (non-fluorescent probe) in dark at 37 °C for 2 h at CO2 [79]. Non-fluorescent, non-polar DCFH-DA (2′7′-dichlorodihydrofluorescein diacetate) at concentration of 25 μM was used as a marker of oxidative stress to determine the intracellular ROS levels. […] In this time, DCFH-DA which penetrated into the cells, was hydrolyzed by esterases to polar, non-fluorescent DCFH (2′7′-dichlorodihydrofluorescein) and then oxidized in the presence of ROS (reactive oxygen species) to fluorescent DCF (2′7′-dichlorofluorescein). DCF was measured using Varioscan LUX microplate reader (Thermo Fisher Scientific, Waltham, MA, USA) at λex = 485 nm and λem = 535 nm. Then results were presented as E/E0 where E is test sample value and E0—control value.
[…] E is the culture with the tested compound and E0 is the negative control without the compound. The routine statistical methods: two-way analysis of variance ANOVA as well as Tukey’s post-hoc test were used. It allowed us to determine the statistical significance of results, where p < 0.05 was set as significant. The statistical indicators were estimated using Statistica 13.3 software.

[4] = system: V79 (fibroblasts from Chinese hamster lung); test: MTT assay, V79; format: cell-based; conditions: Cricetulus griseus, Fibroblast, 48 h incubation, read-out: IC50 [µM] ± SD V79
Source text: as §1, §2, §3

[5] = system: VERO (kidney epithelial cells); test: MTT assay, VERO; format: cell-based; conditions: Chlorocebus sabaeus, Vero, 48 h incubation, read-out: IC50 [µM] ± SD VERO
Source text: as §1, §2, §3

[6] = system: A549 (pulmonary basal cell alveolar adenocarcinoma); test: MTT assay, A549; format: cell-based; conditions: Homo sapiens, 48 h incubation, read-out: IC50 [µM] ± SD A549
Source text: as §1, §2, §3

LoVo cell line = test: Intracellular ROS level (DCFH-DA), LoVo cells; format: cell-based; conditions: Homo sapiens, 4 h, compound 100 μM
Description: as §4
as §5, with “nm.” for “nm. Then results were presented as E/E0 where E is test sample value and E0—control value.”
E is the culture with the tested compound and E0 is the negative control without the compound. The routine statistical methods: two-way analysis of variance ANOVA as well as Tukey’s post-hoc test were used. It allowed us to determine the statistical significance of results, where p < 0.05 was set as significant. The statistical indicators were estimated using Statistica 13.3 software.

[7] = with H2O2 (100 μM, 30 min), n = 5, read-out: ROS scavenging activity, Mean E/E0 ± SD, with H2O2
[8] = without H2O2, n = 5, read-out: ROS scavenging activity, Mean E/E0 ± SD, without H2O2

| SMILES | IC50 [1] | IC50 [2] | IC50 [3] | activity at 100 µM (V79 cell line; [7]) | activity at 100 µM (V79 cell line; [8]) | IC50 [4] | IC50 [5] | IC50 [6] | activity at 100 µM (LoVo cell line; [7]) | activity at 100 µM (LoVo cell line; [8]) |
| --- | --- | --- | --- | --- | --- | --- | --- | --- | --- | --- |
| Cc1cc(C)c(C(=O)NCc2nn(CC(=O)NN=Cc3cccc(Cl)c3)c(=S)o2)c(S)n1 [Compound 12, 4,6-Dimethyl-N-{[4-(2-(2-(3-chlorobenzylidene)hydrazinyl)-2-oxoethyl)-5-sulfanylidene-4,5-dihydro-1,3,4-oxadiazole-2-yl]methyl}-2-sulfanylpyridine-3-carboxamide] | 3.07 ± 0.21 µM | 58.7 ± 2.21 µM | 22.6 ± 8.19 µM | 62 ± 25% | 68 ± 27% | 52.8 ± 7.2 µM | 79.2 ± 14.4 µM | 3.88 ± 0.5 µM | 79 ± 16% | 91 ± 43% |
| Cc1cc(C)c(C(=O)NCc2nn(CC(=O)NN=Cc3ccccc3Br)c(=S)o2)c(S)n1 [Compound 13, 4,6-Dimethyl-N-{[4-(2-(2-(2-bromobenzylidene)hydrazinyl)-2-oxoethyl)-5-sulfanylidene-4,5-dihydro-1,3,4-oxadiazole-2-yl]methyl}-2-sulfanylpyridine-3-carboxamide] | 2.89 ± 0.08 µM | 59.3 ± 3.43 µM | 9.4 ± 5.97 µM | 50 ± 15% | 59 ± 8% | 65.4 ± 4.04 µM | 55.7 ± 1.84 µM | 3.16 ± 0.21 µM | 69 ± 10% | 70 ± 30% |
